Test results reported in patent publication US9808448B2, “Pharmaceutical compounds and use of same in cancer and tauopathies” (THE REGENTS OF THE UNIVERSITY OF MICHIGAN, priority 2013, dated 2017).

Tested on: MDA-MB-231
Assay: Cancer activity screen (MTT cell survival), MDA-MB-231
Format: cell-based
Settings: Homo sapiens, second table

Row | SMILES | IC50 [µM]
1 | CCn1c(=O)/c(=C2\Sc3cc(C(F)(F)F)ccc3N2C)s/c1=C\c1nccs1 | 2.6 ± 0.5
2 | CCn1c(=O)/c(=C2\Sc3c(ccc(F)c3F)N2C)s/c1=C\c1scc[n+]1Cc1ccsc1 | 0.81 ± 0.06
3 | CCn1c(=O)/c(=C2\Sc3cc(Cl)ccc3N2C)s/c1=C\c1scc[n+]1Cc1ccsc1 | 0.11 ± 0.01
4 | CCn1c(=O)/c(=C2\Sc3cc(Cl)ccc3N2C)s/c1=C\c1scc[n+]1Cc1ccc(F)cc1 | 1.07 ± 0.19
5 | COC(=O)CCn1c(=O)/c(=C2\Sc3cc(F)ccc3N2C)s/c1=C\c1ccccn1 | 9 ± 1.7
6 | COC(=O)Cn1c(=O)/c(=C2\Sc3cccc(F)c3N2C)s/c1=C\c1ccccn1 | > 20
7 | CCn1c(=O)/c(=C2\Sc3ccc(Cl)cc3N2C)s/c1=C\c1scc[n+]1Cc1ccccc1C(F)(F)F | 0.25 ± 0.03
8 | CCn1c(=O)/c(=C2\Sc3cc(F)ccc3N2C)s/c1=C\c1scc[n+]1Cc1ccc(C(=O)OC)o1 | 3.05 ± 0.42
9 | CCn1c(=O)/c(=C2\Sc3cc(C(F)(F)F)ccc3N2C)s/c1=C\c1scc[n+]1Cc1ccccc1 | 0.36 ± 0.03
10 | CCn1c(=O)/c(=C2\Sc3c(ccc(F)c3F)N2C)s/c1=C\c1cccc[n+]1Cc1ccccc1C(F)(F)F | 0.38 ± 0.07
11 | COC(=O)Cn1c(=O)/c(=C2\Sc3cccc(F)c3N2C)s/c1=C\c1ccncc1 | > 20
12 | COC(=O)Cn1c(=O)/c(=C2\Sc3cc(C(F)(F)F)ccc3N2C)s/c1=C\c1scc[n+]1Cc1ccccc1 | 2.1 ± 0.4
13 | CCn1c(=O)/c(=C2\Sc3ccc(Cl)cc3N2C)s/c1=C\c1cccc[n+]1Cc1ccccc1 | 0.34 ± 0.03
14 | CCn1c(=O)/c(=C2\Sc3cc(Cl)ccc3N2C)s/c1=C\c1scc[n+]1Cc1ccsc1C(=O)OC | 0.076 ± 0.01
15 | CCn1c(=O)/c(=C2\Sc3ccc(S(C)(=O)=O)cc3N2C)s/c1=C\c1scc[n+]1Cc1ccccc1 | > 20
16 | CCn1c(=O)/c(=C2\Sc3cc(Cl)ccc3N2C)s/c1=C\c1scc[n+]1Cc1cccnc1Br | 1.6 ± 0.2
17 | CCn1c(=O)/c(=C2\Sc3ccc(Cl)cc3N2C)s/c1=C\c1scc[n+]1Cc1ccc(C(F)(F)F)o1 | 0.3 ± 0.02
18 | CCn1c(=O)/c(=C2\Sc3c(ccc(F)c3F)N2C)s/c1=C\c1scc[n+]1C | 5.6 ± 0.6
19 | CCN1C(=O)/C(=C2\Sc3ccc(F)cc3N2C)S/C1=N\c1ccccc1 | 9.18 ± 1.04
20 | CCn1c(=O)/c(=C2\Sc3cc(C(F)(F)F)ccc3N2C)s/c1=C\c1cccc[n+]1CC | 2.7 ± 0.6
21 | CCn1c(=O)/c(=C2\Sc3cc(C)ccc3N2C)s/c1=C\c1scc[n+]1Cc1ccccc1 | 0.041 ± 0.006
22 | CN1/C(=c2\s/c(=C\c3scc[n+]3Cc3ccccc3)n(C3CC3)c2=O)Sc2cc(F)ccc21 | 0.76 ± 0.08

Row | SMILES | IC50 [µM]
23 | COC(=O)CCn1c(=O)/c(=C2\Sc3cc(Cl)ccc3N2C)s/c1=C\c1ccccn1 | > 20
24 | COC(=O)Cn1c(=O)/c(=C2\Sc3cc(F)ccc3N2C)s/c1=C\c1scc[n+]1Cc1ccccc1 | 2.9 ± 0.3
25 | CCn1c(=O)/c(=C2\Sc3cc(OC(F)(F)F)ccc3N2C)s/c1=C\c1scc[n+]1Cc1ccc(C(F)(F)F)o1 | 0.51 ± 0.03
26 | CCn1c(=O)/c(=C2\Sc3cc(C(F)(F)F)ccc3N2C)s/c1=C\c1scc[n+]1CC | 4.2 ± 0.6
27 | CCn1c(=O)/c(=C2\Sc3cc(Cl)ccc3N2C)s/c1=C\c1scc[n+]1Cc1ccc([N+](=O)[O-])o1 | > 30
28 | COC(=O)CCn1c(=O)/c(=C2\Sc3cc(Cl)ccc3N2C)s/c1=C\c1scc[n+]1Cc1ccccc1 | 0.24 ± 0.03
29 | CCn1c(=O)/c(=C2\Sc3cc(C(F)(F)F)ccc3N2C)s/c1=C\c1ccncc1 | > 20
30 | COC(=O)Cn1c(=O)/c(=C2\Sc3cc(C(F)(F)F)ccc3N2C)s/c1=C\c1cccc[n+]1C | > 20
31 | CN1/C(=c2\s/c(=C\c3scc[n+]3Cc3ccccc3C(F)(F)F)n(C)c2=O)Sc2c1ccc(F)c2F | 0.12 ± 0.009
32 | CCn1c(=O)/c(=C2\Sc3c(ccc(F)c3F)N2C)s/c1=C\c1scc[n+]1Cc1cc(C)on1 | 1.33 ± 0.11
33 | CCn1c(=O)/c(=C2\Sc3c(ccc(F)c3F)N2C)s/c1=C\c1cccc[n+]1Cc1cc(C)on1 | 3.72 ± 0.41
34 | CCn1c(=O)/c(=C2\Sc3cc(Cl)ccc3N2C)s/c1=C\c1scc[n+]1Cc1ccc(C(F)(F)F)o1 | 0.12 ± 0.02
35 | CCn1c(=O)/c(=C2\Sc3c(ccc(F)c3F)N2C)s/c1=C\c1cccc[n+]1Cc1ccsc1Br | 0.92 ± 0.17
36 | COC(=O)[C@@H](C)n1c(=O)/c(=C2\Sc3cc(F)ccc3N2C)s/c1=C\c1ccccn1 | > 20
37 | CCn1c(=O)/c(=C2\Sc3cc(C#N)ccc3N2C)s/c1=C\c1ccccn1 | 22.3 ± 4.61
38 | COC(=O)Cn1c(=O)/c(=C2\Sc3cc(F)ccc3N2C)s/c1=C\c1ccncc1 | 2 ± 0.2
39 | CCn1c(=O)/c(=C2\Sc3cc(Cl)ccc3N2C)s/c1=C\c1scc[n+]1Cc1cc(C)on1 | 0.22 ± 0.02
40 | CCn1c(=O)/c(=C2\Sc3cc(Cl)ccc3N2C)s/c1=C\c1scc[n+]1Cc1ccccc1C(F)(F)F | 0.13 ± 0.01
41 | CCn1c(=O)/c(=C2\Sc3c(ccc(F)c3F)N2C)s/c1=C\c1scc[n+]1Cc1ccc(C(F)(F)F)o1 | 0.51 ± 0.05
42 | CCn1c(=O)/c(=C2\Sc3ccc(Cl)cc3N2C)s/c1=C\c1scc[n+]1C | 3.1 ± 0.4
43 | CCn1c(=O)/c(=C2\Sc3cc(Cl)ccc3N2C)s/c1=C\c1scc[n+]1Cc1cccc(C(F)(F)F)c1 | 0.4 ± 0.04
44 | CCn1c(=O)/c(=C2\Sc3cc(Cl)ccc3N2C)s/c1=C\c1scc[n+]1Cc1ccc(C(F)(F)F)cc1 | 1.2 ± 0.15

Row | SMILES | IC50 [µM]
45 | COC(=O)Cn1c(=O)/c(=C2\Sc3c(F)cccc3N2C)s/c1=C\c1ccccn1 | > 20
46 | CCn1c(=O)/c(=C2\Sc3ccc(OC(F)(F)F)cc3N2C)s/c1=C\c1scc[n+]1Cc1ccccc1 | 1.25 ± 0.13
47 | CCn1c(=O)/c(=C2\Sc3c(ccc(F)c3F)N2C)s/c1=C\c1nccs1 | 11.7 ± 2.3
48 | C=CCn1c(=O)/c(=C2\Sc3cccc(F)c3N2C)s/c1=C\c1ccncc1 | 0.38 ± 0.03
49 | CCn1c(=O)/c(=C2\Sc3c(ccc(F)c3F)N2C)s/c1=C\c1scc[n+]1Cc1ccccc1 | 0.24 ± 0.01
50 | CCn1c(=O)/c(=C2\Sc3ccc(Cl)cc3N2C)s/c1=C\c1scc[n+]1Cc1ccsc1Br | 0.24 ± 0.03
51 | CCn1c(=O)/c(=C2\Sc3cc(Cl)ccc3N2C)s/c1=C\c1nccs1 | 2.3 ± 0.6
52 | CCn1c(=O)/c(=C2\Sc3cc(C#N)ccc3N2C)s/c1=C\c1cccc[n+]1Cc1ccccc1 | 1.4 ± 0.1
53 | CCn1c(=O)/c(=C2\Sc3cc(Cl)ccc3N2C)s/c1=C\c1scc[n+]1C(C)C(=O)c1ccccc1 (stereo not shown) | 0.34 ± 0.03
54 | CN1/C(=c2\s/c(=C\c3ccncc3)n(CC(=O)O)c2=O)Sc2cc(F)ccc21 | > 20
55 | CCn1c(=O)/c(=C2\Sc3cc(Cl)ccc3N2C)s/c1=C\c1scc[n+]1Cc1csc(C)n1 | 0.74 ± 0.07
56 | COC(=O)Cn1c(=O)/c(=C2\Sc3ccc(F)cc3N2C)s/c1=C\c1ccncc1 | > 20
57 | CCn1c(=O)/c(=C2\Sc3ccc(Cl)cc3N2C)s/c1=C\c1scc[n+]1Cc1ccsc1C(=O)OC | 0.16 ± 0.02
58 | CCn1c(=O)/c(=C2\Sc3cc(F)ccc3N2C)s/c1=C\c1scc[n+]1Cc1ccccc1C(F)(F)F | 0.21 ± 0.03
59 | CCn1c(=O)/c(=C2\Sc3cc(F)ccc3N2C)s/c1=C\c1scc[n+]1Cc1ccc(C(F)(F)F)o1 | 0.16 ± 0.03
60 | CCn1c(=O)/c(=C2\Sc3cc(Cl)ccc3N2C)s/c1=C\c1scc[n+]1Cc1cccc(F)c1 | 1.01 ± 0.16
61 | CCn1c(=O)/c(=C2\Sc3c(ccc(F)c3F)N2C)s/c1=C\c1cccc[n+]1Cc1ccc(C(F)(F)F)o1 | 0.92 ± 0.1
62 | COC(=O)[C@@H](C)n1c(=O)/c(=C2\Sc3cc(F)ccc3N2C)s/c1=C\c1scc[n+]1Cc1ccccc1 | 1.2 ± 0.14
63 | CCn1c(=O)/c(=C2\Sc3ccc(C)cc3N2C)s/c1=C\c1scc[n+]1Cc1ccccc1 | 0.078 ± 0.01
64 | COC(=O)Cn1c(=O)/c(=C2\Sc3c(F)cccc3N2C)s/c1=C\c1ccncc1 | > 20
65 | CCn1c(=O)/c(=C2\Sc3cc(Cl)ccc3N2C)s/c1=C\c1scc[n+]1Cc1cc(-c2ccccc2)no1 | 0.17 ± 0.01
66 | CCn1c(=O)/c(=C2\Sc3ccc(Cl)cc3N2C)s/c1=C\c1scc[n+]1Cc1cc(-c2ccccc2)no1 | 0.5 ± 0.04

Row | SMILES | IC50 [µM]
67 | CCn1c(=O)/c(=C2\Sc3c(ccc(F)c3F)N2C)s/c1=C\c1scc[n+]1Cc1ccsc1Br | 0.48 ± 0.06
68 | COC(=O)Cn1c(=O)/c(=C2\Sc3cc(Cl)ccc3N2C)s/c1=C\c1scc[n+]1Cc1ccccc1 | > 20
69 | CN1/C(=c2\s/c(=C\c3ccncc3)n(CC(=O)O)c2=O)Sc2cccc(F)c21 | > 20
70 | CCn1c(=O)/c(=C2\Sc3cc(Cl)ccc3N2C)s/c1=C\c1scc[n+]1Cc1ccccc1F | 0.29 ± 0.04
71 | COC(=O)Cn1c(=O)/c(=C2\Sc3cc(F)ccc3N2C)s/c1=C\c1ccccn1 | > 20
72 | CCn1c(=O)/c(=C2\Sc3cc(Cl)ccc3N2C)s/c1=C\c1scc[n+]1Cc1ccsc1Br | 0.2 ± 0.02
73 | COC(=O)CCn1c(=O)/c(=C2\Sc3cc(F)ccc3N2C)s/c1=C\c1scc[n+]1Cc1ccccc1 | 0.96 ± 0.07
74 | CCn1c(=O)/c(=C2\Sc3cc(OC(F)(F)F)ccc3N2C)s/c1=C\c1cccc[n+]1Cc1ccccc1 | 0.71 ± 0.12
75 | CCn1c(=O)/c(=C2\Sc3c(C)cccc3N2C)s/c1=C\c1scc[n+]1Cc1ccccc1 | 0.25 ± 0.03
76 | CN1/C(=c2\s/c(=C\c3scc[n+]3Cc3ccccc3)n(C3CC3)c2=O)Sc2cc(Cl)ccc21 | 0.56 ± 0.08
77 | CCn1c(=O)/c(=C2\Sc3cc(C(F)(F)F)ccc3N2C)s/c1=C\c1scc[n+]1C | 8.5 ± 1
78 | CCn1c(=O)/c(=C2\Sc3c(ccc(F)c3F)N2C)s/c1=C\c1cccc[n+]1Cc1ccsc1 | 2.09 ± 0.31
79 | CCn1c(=O)/c(=C2\Sc3c(ccc(F)c3F)N2C)s/c1=C\c1scc[n+]1Cc1ccsc1C(=O)OC | 0.21 ± 0.03
80 | CCn1c(=O)/c(=C2\Sc3cc(Cl)ccc3N2C)s/c1=C\c1scc[n+]1Cc1ccc(C(=O)OC)o1 | 0.97 ± 0.1
81 | CCn1c(=O)/c(=C2\Sc3ccc(Cl)cc3N2C)s/c1=C\c1scc[n+]1Cc1ccsc1 | 0.44 ± 0.05
82 | CCOC(=O)c1ccc(C[n+]2ccsc2/C=c2\s/c(=C3/Sc4cc(Cl)ccc4N3C)c(=O)n2CC)o1 | 0.72 ± 0.08
83 | CCn1c(=O)/c(=C2\Sc3c(ccc(F)c3F)N2C)s/c1=C\c1cccc[n+]1Cc1ccsc1C(=O)OC | 1.95 ± 0.27
84 | COC(=O)Cn1c(=O)/c(=C2\Sc3ccc(F)cc3N2C)s/c1=C\c1ccccn1 | > 20
85 | CCn1c(=O)/c(=C2\Sc3cc(F)ccc3N2C)s/c1=C\c1scc[n+]1Cc1ccsc1C(=O)OC | 0.14 ± 0.02
86 | CCn1c(=O)/c(=C2\Sc3ccc(Cl)cc3N2C)s/c1=C\c1scc[n+]1Cc1cc(C)on1 | 1.05 ± 0.09
87 | CCn1c(=O)/c(=C2\Sc3c(ccc(F)c3F)N2C)s/c1=C\c1cccc[n+]1Cc1cc(-c2ccccc2)no1 | 1.33 ± 0.2
88 | CCn1c(=O)/c(=C2\Sc3cc(F)ccc3N2C)s/c1=C\c1scc[n+]1Cc1ccccc1 | 0.15 ± 0.01
